Measured values: ChEMBL document CHEMBL1155680, “A new bioactive triene aldehyde from the marine sponge Leucetta microraphis” (J Nat Prod, 2000)
Calls of active or inactive are those of the source. No cut-off for these calls is given here.

Test system: HeLa
Assay: Growth inhibition of human HeLa S3 cells at 10 ug/ml after 72 hrs by crystal violet assay
Type: functional, cell-based

For CCCCCCCCCC/C=C\C/C=C\CC/C=C(\C)C=O, the Activity was “Active”.
